Data reported in patent publication US20260091086A1, “POLYPEPTIDE COMBINATIONS AND USES THEREOF” (MEDIMMUNE LIMITED, priority 2024, published 2026).
Numbered stars: 1 amine (or outer) side, 2 acyl side, 3 side chain; on linkers, the order of the positions; unused ones are H or OH. Bridge positions count the residues as written; N and C are the ends. Square brackets hold non-standard residues; d marks the D form. Side chains are listed from the residue outwards. Ends that are not written are not given here. * marks the point of attachment. C18 diacid = O=C(O)CCCCCCCCCCCCCCCCC(=O)*; γGlu = O=C(O)[C@H](CCC(=O)[*:2])N[*:1]; αMeF = C[C@](N)(Cc1ccccc1)C(=O)O

How the values were obtained:
[1] = tested on: chow fed lean rats; assay: Example 3: acute gastric emptying by X-ray fluoroscopic quantification; assay type: in vivo, rat; settings: acute SC
Method: (§1) Study design: DIO male pair-housed rats fed a 32.5% high-fat diet (D12266B) for 7 weeks reached a mean body weight (BW) of ˜595 g. Rats were dosed SC daily for 28 days with vehicle (Vh), GLP-1/GCG dual agonist (1.5 or 5 nmol/kg), LAA (2.5 or 7.5 nmol/kg), or combination (1.5+2.5 nmol/kg, 1.5+7.5 nmol/kg, 5+2.5 nmol/kg, or 5+7.5 nmol/kg, respectively). Food intake (FI) and BW were measured daily. In chow fed lean rats, gastric emptying (GE) was measured via X-ray fluoroscopic quantification following SC injections of Vh, GLP-1/GCG dual agonist at 1, 3, or 10 nmol/kg or LAA at 1, 3, or 10 nmol/kg. In a subsequent acute GE study, lean rats received a single dose of Vh, GLP-1/GCG dual agonist (2 nmol/kg), LAA (2 nmol/kg) or GLP-1/GCG dual agonist+LAA combination (2+2 nmol/kg). In this experiment, the LAA was that of SEQ ID NO: 11, and the GLP-1/GCG dual-agonist was cotadutide.

[2] = tested on: DIO Sprague-Dawley rats; assay: Example 3: 28-day body weight study in DIO rats; assay type: in vivo, rat; settings: day 28
Method: Study Design: Male DIO Sprague-Dawley rats were fed a high-fat diet (32.5% kcal fat, D12266B; Research Diets) for approximately 8 weeks prior to study start. Rats were dosed once daily SC for 28 days with Vehicle, GLP-1/GCG (1.5 nmol/kg or 5 nmol/kg), LAA (7.5 nmol/kg) or a combination of GLP-1/GCG and LAA (1.5 and 7.5 nmol/kg, or 5 nmol/kg and 7.5 nmol/kg, respectively) with an n=6/group. Body weight was monitored daily throughout the study. Data reported as mean±standard error of the mean (SEM); data analysis performed using GraphPad Prism-statistical analysis performed using One-way ANOVA with Tukey ad hoc analysis (*p<0.05, **p<0.01, ***0<0.001, ****p<0.0001). In this experiment, the LAA was that of SEQ ID NO: 11, and the GLP-1/GCG dual-agonist was cotadutide.

[3] = tested on: DIO male pair-housed rats; assay: Example 3 additional study: 28-day body weight, food intake and organ weights in DIO rats; assay type: in vivo, rat
Method: as §1

[4] = tested on: diet-induced obese (DIO) Sprague-Dawley rats; assay: Example 2: 28-day combination study in DIO rats (body weight, EchoMRI body composition); assay type: in vivo, rat; settings: LAA 10 nmol/kg, GLP-1/GCG 5.4 nmol/kg or both
Method: Study Design: Male diet-induced obese (DIO) Sprague-Dawley rats were fed a high fat diet (45% fat, D12451; Research Diets) for 34 weeks prior to study start. […] Research Diets). […] Average body weight for all DIO rats at start of study was 722.4+10.1 grams. Body composition was measured by EchoMRI on day-7 and day 26. In this experiment, the LAA was that of SEQ ID NO: 11, and the GLP-1/GCG dual-agonist was cotadutide. Data reported as mean±standard error of the mean (SEM); data analysis performed using GraphPad Prism-statistical analysis performed using One-way ANOVA with Tukey ad hoc analysis.

[5] = tested on: DIO Sprague-Dawley rats; assay: Example 5: 19-day Q2D body weight study with Fc-linked agonists; assay type: in vivo, rat; settings: mono-treatment 0.1 mg/kg Q2D SC, 19 days
Method: Study Design: Male DIO Sprague-Dawley rats were fed a high-fat diet (32.5% kcal fat, D12266B; Research Diets) for approximately 6 weeks prior to study start. Rats were dosed every other day (Q2D) SC for 19 days with Vehicle, GLP1-Fc (0.1 or 1 mg/kg), Fc-LAA (0.1 or 2 mg/kg) or a combination of GLP1-Fc and Fc-LAA (0.1+0.1 mg/kg, 0.1+2 mg/kg, 1+0.1 mg/kg or 1+2 mg/kg respectively) with an n=7/group. Body weight was monitored daily through-out study and shown below as % change of vehicle treatment. Data reported as mean±standard error of the mean (SEM). In this experiment, the LAA was an Fc-Amylin, and the GLP-1 agonist was dulaglutide (a GLP-1 agonist covalently linked to an Fc fragment of IgG4).

[6] = tested on: AMY3R/CTR; assay: Relative potency ratio, cAMP accumulation assays with 0.1% BSA, human receptors; assay type: cell-based; settings: 0.1% bovine serum albumin, n ≥ 5; potencies relative to pramlintide 100%
[7] = biological target: T1, rat calcitonin receptor (Rattus norvegicus, UniProt P32214); assay: Target engagement estimate (unbound Cmax / unbound in vitro potency), calcitonin receptor; settings: DACRA 10 nmol/kg vs LAA 30 nmol/kg
T1 construct: expressed in transfected cells; host or cells: HEK293
T1 sequence (P32214 25-516): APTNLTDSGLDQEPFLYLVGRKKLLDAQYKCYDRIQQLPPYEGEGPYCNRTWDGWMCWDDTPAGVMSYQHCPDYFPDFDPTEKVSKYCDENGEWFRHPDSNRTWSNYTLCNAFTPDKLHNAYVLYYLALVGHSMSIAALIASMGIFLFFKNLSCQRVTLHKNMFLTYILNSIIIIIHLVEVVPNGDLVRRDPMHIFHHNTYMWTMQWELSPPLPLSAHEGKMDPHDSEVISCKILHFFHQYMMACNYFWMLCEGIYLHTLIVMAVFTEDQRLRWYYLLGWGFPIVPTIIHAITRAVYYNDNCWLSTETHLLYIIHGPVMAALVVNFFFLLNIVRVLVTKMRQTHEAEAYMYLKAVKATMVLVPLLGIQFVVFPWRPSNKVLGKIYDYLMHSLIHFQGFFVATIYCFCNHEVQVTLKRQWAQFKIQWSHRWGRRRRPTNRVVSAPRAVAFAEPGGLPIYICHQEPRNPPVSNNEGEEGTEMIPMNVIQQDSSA
Method: Target engagement was estimated in the following way for each compound. The maximum concentration (Cmax) after subcutaneous injection was measured in separate rat pharmacokinetic studies and was dose-adjusted to the tested dose levels when appropriate, assuming dose linearity. Plasma protein binding was determined in vitro using 3B Pharmaceutical's Escalate Equilibrium Shift Assay or an in-house Surface Plasmon Resonance (SPR) assay. Peptide in vitro potency was determined via HTRF CAMP accumulation assay using HEK293 cells recombinantly expressing the rat calcitonin receptor or rat amylin receptor (calcitonin receptor plus RAMP3) in saline buffer containing 0.1% bovine serum albumin. The in vitro potencies (IC50s) for amylin and calcitonin were adjusted to unbound values by taking into account the albumin concentration in the assay and fraction unbound data, according to an established method (Wan H and Bergström F (2007), High Throughput Screening of Drug-Protein Binding in Drug Discovery, Journal of Liquid Chromatography & Related Technologies, 30:5, 681-700; doi: 10.1080/10826070701190989). Finally, the target engagement was calculated as the unbound Cmax divided by the unbound IC50, both for amylin and calcitonin. […] Uncertainty of parameter estimates was determined by bootstrapping, sampling single measurements randomly with replacement within each experiment (N=500). […]

[8] = tested on: High-fat diet (DIO) fed rats; assay: Example 9: 4-week LAA or DACRA monotherapy in DIO rats; assay type: in vivo, rat; settings: for BW reduction compared to vehicle / reduction of cumulative food intake: 4 weeks; for proportion of body weight loss that was fat-mass specific: FIG. 8C
Excerpt: Study 1 Design: High-fat diet (DIO) fed rats were used to profile LAA or DACRA monotherapy to evaluate food intake, body weight-lowering and body composition effects in a 4-week study. In this experiment, the LAA was that of SEQ ID NO: 11 and the DACRA was cagrilintide.

[9] = tested on: AMY3R/CTR; assay: Relative potency ratio, cAMP accumulation assays with 0.1% BSA, rat receptors; assay type: cell-based; settings: 0.1% bovine serum albumin, n ≥ 5; potencies relative to pramlintide 100%
Method: Target engagement was estimated in the following way for each compound. The maximum concentration (Cmax) after subcutaneous injection was measured in separate rat pharmacokinetic studies and was dose-adjusted to the tested dose levels when appropriate, assuming dose linearity. Plasma protein binding was determined in vitro using 3B Pharmaceutical's Escalate Equilibrium Shift Assay or an in-house Surface Plasmon Resonance (SPR) assay. Peptide in vitro potency was determined via HTRF CAMP accumulation assay using HEK293 cells recombinantly expressing the rat calcitonin receptor or rat amylin receptor (calcitonin receptor plus RAMP3) in saline buffer containing 0.1% bovine serum albumin. The in vitro potencies (IC50s) for amylin and calcitonin were adjusted to unbound values by taking into account the albumin concentration in the assay and fraction unbound data, according to an established method (Wan H and Bergström F (2007), High Throughput Screening of Drug-Protein Binding in Drug Discovery, Journal of Liquid Chromatography & Related Technologies, 30:5, 681-700; doi: 10.1080/10826070701190989). Finally, the target engagement was calculated as the unbound Cmax divided by the unbound IC50, both for amylin and calcitonin. The Emax model was defined as aversion=E0+Emax×(ENG^h/(ENG^h+ED50^h)), where E0 is the baseline aversion, Emax is the maximum induced aversion, ENG is the receptor engagement, and h is the slope (Hill) parameter. Parameter estimation was performed according to a maximum likelihood approach with an additive error model, incorporating data from all compounds simultaneously. Uncertainty of parameter estimates was determined by bootstrapping, sampling single measurements randomly with replacement within each experiment (N=500). Numeric analyses were performed in MATLAB (R2023b; The MathWorks, Natick, MA). The aversion data are given as mean and standard error (N=9-11 per group). In this experiment, the LAA/SARA1 was that of SEQ ID NO: 11, SARA2 was eloralintide, DACRA1 was cagrilintide, and DACRA2 was petrelintide.

[10] = biological target: human amylin receptor 3 (hAMY3R; complex of hCTR and hRAMP3) (human, UniProt P30825 2-629; O60896 24-148, limits assumed); assay: cell-based or functional assay
[11] = biological target: T2, rat amylin receptor (calcitonin receptor plus RAMP3) (rat, UniProt P32214 25-516; Q9JJ73 23-147); assay: cell-based or functional assay
T2 sequence (looked up) 1: T1 sequence (P32214 25-516)
T2 sequence (looked up) 2: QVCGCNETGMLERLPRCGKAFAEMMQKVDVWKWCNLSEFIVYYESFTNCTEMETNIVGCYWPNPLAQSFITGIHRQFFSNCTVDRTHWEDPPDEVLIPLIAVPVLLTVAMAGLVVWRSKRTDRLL

Sequence of human amylin receptor 3 (hAMY3R; complex of hCTR and hRAMP3) (P30825 2-629 limits assumed, chain 1 of 2): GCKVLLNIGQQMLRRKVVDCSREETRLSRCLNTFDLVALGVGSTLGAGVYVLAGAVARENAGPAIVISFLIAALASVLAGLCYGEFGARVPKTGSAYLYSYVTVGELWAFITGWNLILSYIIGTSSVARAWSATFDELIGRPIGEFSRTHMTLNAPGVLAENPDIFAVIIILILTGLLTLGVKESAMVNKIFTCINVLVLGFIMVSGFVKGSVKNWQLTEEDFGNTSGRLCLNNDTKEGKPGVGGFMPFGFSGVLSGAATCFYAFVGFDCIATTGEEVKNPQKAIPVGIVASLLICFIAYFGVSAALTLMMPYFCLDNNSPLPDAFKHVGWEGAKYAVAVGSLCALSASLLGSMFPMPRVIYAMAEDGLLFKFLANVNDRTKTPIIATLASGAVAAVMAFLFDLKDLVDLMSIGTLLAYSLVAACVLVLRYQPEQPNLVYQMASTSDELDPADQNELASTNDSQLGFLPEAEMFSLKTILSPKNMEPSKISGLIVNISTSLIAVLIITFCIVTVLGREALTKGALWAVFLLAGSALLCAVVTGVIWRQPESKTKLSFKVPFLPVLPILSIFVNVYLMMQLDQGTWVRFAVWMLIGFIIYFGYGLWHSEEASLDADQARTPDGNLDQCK
Sequence of human amylin receptor 3 (hAMY3R; complex of hCTR and hRAMP3) (O60896 24-148 limits assumed, chain 2 of 2): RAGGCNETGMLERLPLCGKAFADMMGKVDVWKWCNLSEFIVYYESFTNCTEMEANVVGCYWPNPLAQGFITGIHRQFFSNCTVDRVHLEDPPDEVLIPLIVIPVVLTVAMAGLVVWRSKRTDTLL

HSQGTFTSD-X10-SEYLDSERARDFVAWLEAGG-acid, wherein X10=Lys[ε-γE-Palmitoyl] [GLP-1/GCG]
GE AUC as % of Vehicle ([1]; 1 nmol/kg): 85%
GE AUC as % of Vehicle ([1]; 3 nmol/kg): 49%
GE AUC as % of Vehicle ([1]; 10 nmol/kg): 24%
mean change in body weight normalized to Vehicle ([2]; GLP-1/GCG 1.5 nmol/kg SC QD): −8.4%
mean change in body weight normalized to Vehicle ([2]; GLP-1/GCG 5 nmol/kg SC QD): −25%
Vh corrected BW change (BW gain) ([3]; 28 days SC daily, GLP-1/GCG dual agonist 1.5 nmol/kg): −8.4%
Vh corrected BW change (BW gain) ([3]; 28 days SC daily, GLP-1/GCG dual agonist 5 nmol/kg): −25.0%
Cumulative FI normalized to Vh ([3]; 28 days SC daily, monotherapy and combination groups): decreased in a dose-dependent manner
Liver lipids (%) vs Vh ([3]; all GLP-1/GCG dual agonist 5 nmol/kg treated groups): lower than Vh
Liver weights vs. Vh ([3]; all combination groups, GLP-1/GCG dual agonist monotherapy at 5 nmol/kg): Liver weights decreased
body weight loss vs Vehicle ([4]; SC QD, FIG. 1A): lost significantly more body weight than Vehicle treated rats
fat mass change (EchoMRI) ([4]; day 26): lost both fat and lean mass compared to Vehicle treated animals
lean mass change (EchoMRI) ([4]; day 26): lost both fat and lean mass compared to Vehicle treated animals

dulaglutide [GLP1-Fc]
body weight change normalized to vehicle [5]: 1.0%

cagrilintide [DACRA]
Relative potency ratio (AMY3R/CTR), Human [6]: 0.08
calcitonin engagement, fold more than LAA [7]: 2-3 fold
BW reduction compared to vehicle ([8]; 1 nmol/kg): −3±0.6%
reduction of cumulative food intake ([8]; 1 nmol/kg): −7.1±2.1 % of vehicle
BW reduction compared to vehicle ([8]; 3 nmol/kg): −5.3±1.1%
reduction of cumulative food intake ([8]; 3 nmol/kg): −16±2.5 % of vehicle
BW reduction compared to vehicle ([8]; 10 nmol/kg): −8.8±1.4%
reduction of cumulative food intake ([8]; 10 nmol/kg): −23.9±3.5 % of vehicle
BW reduction compared to vehicle ([8]; 20 nmol/kg): −11.6±0.9%
reduction of cumulative food intake ([8]; 20 nmol/kg): −23.7±1.1 % of vehicle
fat-mass loss ([8]; end of study, 10 nmol/kg): -15.5 ± 6.0 g
proportion of body weight loss that was fat-mass specific ([8]; end of study, 10 nmol/kg): 54%
proportion of body weight loss that was fat-mass specific ([8]; end of study, 20 nmol/kg): 61%
lean mass ([8]; end of study, FIG. 8B): Lean mass was preserved in the LAA groups, unlike in the DACRA groups
Relative potency ratio (AMY3R/CTR), Rat [9]: 0.01

KCNTATCATQRLANFLVHSSNNFGPILPPTNVGSNTY-NH2 (disulfide 2-7) [Pramlintide]
Relative potency ratio (AMY3R/CTR), Human; cAMP accumulation assay, 0.1% BSA [10]: 1 ratio
Relative potency ratio (AMY3R/CTR), Rat; cAMP accumulation assay, 0.1% BSA [11]: 1 ratio

K([γGlu-γGlu-C18 diacid])CNTATCATQRLANFLRHSSNN[αMeF]GPILPPTEVGSNTY-NH2 (disulfide 2-7) [LAA/SARA 1 (lipidated pramlintide analogue of SEQ ID NO: 11)]
Relative potency ratio (AMY3R/CTR), Human; cAMP accumulation assay, 0.1% BSA [10]: 0.9 ratio
Relative potency ratio (AMY3R/CTR), Rat; cAMP accumulation assay, 0.1% BSA [11]: 1.6 ratio
